According to patent US6034096A, “Compounds with anti-inflammatory and immunosuppressive activities” (Italfarmaco S.p.A., priority 1996, dated 2000):
Counter-ions that a name gives are not always drawn.

test system: serum TNFα; assay: In vivo LPS-induced TNFα production (serum TNFα, ELISA); parameters: species or system Male BALB/c mice; details: 5.0 ng/kg (so in the source), orally 90 min before LPS (7.5 mg/kg i.p.), serum 2 h after LPS
Experimental: 2. In vivo LPS-induced TNFα production Male BALB/c mice (18-20 g) were obtained from Harlan-Nossan (Correzzana, Italy); Lipopolysaccharide (LPS) from S. enteritidis (code L-6011) was from Sigma (St. Louis, Mo.); Dexamethasone (Soldesam) from Laboratorio Farmacologico Milanese (Caronno P., Italy).
Mice were treated i.p. with LPS (S. enteritidis, 7.5 mg/kg). Dexamethasone was administered i.p. 30 min. before LPS. Compounds were administered orally 90 min. before LPS. Two hours after LPS administration the anaesthetized animals were sacrificed, blood was collected by cardiac puncture and allowed to coagulate. Serum TNFα was measured by ELISA with "mouse Reagent Sets" (Genzyme, Cambridge, Mass.) according to the manufacturer's instructions and using mouse recombinant TNFα as standard.

For `CCN(CC)Cc1ccc2cc(COC(=O)Nc3ccc(C(=O)NO)cc3)ccc2c1` [Example 12, hydrochloride], the “Inhibition (%)” value was 64.3%.

Work on `CCN(CC)Cc1ccc2cc(COC(=O)Nc3ccc(C(=O)NO)cc3)ccc2c1` [Example 12, hydrochloride] yielded a TNFα of 407 pg/mL.

same assay, conditions: 0.5 mg/kg, orally 90 min before LPS (7.5 mg/kg i.p.), serum 2 h after LPS

For `CCN(CC)Cc1ccc2cc(COC(=O)Nc3ccc(C(=O)NO)cc3)ccc2c1` [Example 12, hydrochloride], the “Inhibition (%)” value was 55.0%.

`CCN(CC)Cc1ccc2cc(COC(=O)Nc3ccc(C(=O)NO)cc3)ccc2c1` [Example 12, hydrochloride] gave a TNFα of 514 pg/mL.

same assay, conditions: 30 mg/kg, i.p. 30 min before LPS (7.5 mg/kg i.p.), serum 2 h after LPS

In the case of `C[C@@H]1C[C@H]2[C@@H]3CCC4=CC(=O)C=C[C@]4(C)[C@@]3(F)[C@@H](O)C[C@]2(C)[C@@]1(O)C(=O)CO` [Dexamethasone, reference compound], the “Inhibition (%)” value is reported as 90.2%.

`C[C@@H]1C[C@H]2[C@@H]3CCC4=CC(=O)C=C[C@]4(C)[C@@]3(F)[C@@H](O)C[C@]2(C)[C@@]1(O)C(=O)CO` [Dexamethasone, reference compound] showed a TNFα of 112 pg/mL.

test system: human IL-1β; assay: In vitro cytokines production test (LPS-stimulated human PBMC, IL-1β ELISA); format: cell-based; details: 10 ng/ml LPS, 60 min pretreatment, 20 hours culture, read-out: IC50 (inhibition of IL-1β production)
Experimental: 1. In vitro cytokines production test
The compounds of the invention were tested by in particular on the production of human IL-1β. Mononuclear cells (PBMC) were prepared from peripheral blood ("buffy coat") from healthy donors, by centrifugation over density gradient Ficoll-Hypaque (Biochrom KG, Berlin, Germany). The cells (2,5×10^6 for ml) were cultured at 37° C. under humid atmosphere containing 5% CO2 in 96-wells plates (Nunc) at a final volume of 200 μl. […] The production of cytokines was induced by stimulating the cells with 10 ng/ ml of LPS (lipopolysaccharide) from E. coli serotype 055:B5 (Sigma Chemical Co., St. Louis. Mo.). The cells were pretreated with the compounds of the intention dissolved in DMSO (final concentration: 0.05% […]) for 60 minutes. The compounds and LPS were present during the whole 20 hours of culture. As the negative control, not-stimulated cells were used. At the end of the test, supernatants were collected and the IL-1β production was tested by a specific ELISA assay ("sandwich-type antigen capture", R & D System, Minneapolis, Minn.; all of the tests were carried out in duplicate). A goat polyclonal serum specific for human IL-1β was used, purified by affinity, to cover the 96-wells microtitration plates (Nunc). After washing, the wells were incubated for 2 hours with 3% of boyine serum albumine (BSA) in buffered saline. Recombinant human IL-1β was used to obtain a standard curve for each test and the supernatant samples were diluted to 1/20 and 1/80 with PBS+0.1% of BSA. The plates were then incubated at 4° C. overnight. After washing, the secondary antibody was added, i.e. an anti- human lL-1β murine monoclonal antibody. After incubation and washing, a goat anti-murine Ig-G polyclonal antibody peroxidase-conjugated (Zymed) was added, then the chromogenic substrate tetramethylbenzidine dichloride (Sigma). The reaction was stopped with 4N H2 SO4 and the absorbance at 450 nm was measured with an automatic spectrophotometer (Perkin-Elmer).

Going from `O=C(Nc1ccc(C(=O)NO)cc1)OC/C=C/c1ccccc1` [Example 8] to `O=C(Nc1ccc(C(=O)NO)cc1)OC/C=C\c1ccccc1` [Example 9], the IC50 rises from 29 nM to 72 nM (2.5-fold).

Compared with `CCCN(CCC)Cc1ccc2cc(COC(=O)Nc3ccc(C(=O)NO)cc3)ccc2c1` [Example 13, hydrochloride], `CCCCN(CCCC)Cc1ccc2cc(COC(=O)Nc3ccc(C(=O)NO)cc3)ccc2c1` [Example 14, hydrochloride] is 2.3-fold higher in IC50: 166 nM for the first, 382 nM for the second.

Compared with `CCN(CC)Cc1ccc(COC(=O)Nc2ccc(C(=O)NO)cc2)c2ccccc12` [Example 15, hydrochloride], `O=C(Nc1ccc(C(=O)NO)cc1)OCc1cccc2ccccc12` [Example 4] is 2-fold higher in IC50: 14 nM for the first, 28 nM for the second.

Going from `CCN(CC)Cc1ccc2cc(COC(=O)Nc3ccc(C(=O)NO)cc3)ccc2c1` [Example 12, hydrochloride] to `CCN(CC)Cc1ccc2cc(CNC(=O)Nc3ccc(C(=O)NO)cc3)ccc2c1` [Example 16, hydrochloride], the IC50 falls from 96 nM to 10 nM (9.6-fold). The second is the more potent here.

Compared with `O=C(Nc1ccc(C(=O)NO)cc1)OCCC12CC3CC(CC(C3)C1)C2` [Example 3], `O=C(Nc1ccc(C(=O)NO)cc1)OCC1CCc2ccccc2C1` (stereo not shown) [Example 5] is 3.9-fold lower in IC50: 531 nM for the first, 137 nM for the second. The second is the more potent here.

First: O=C(Nc1ccc(C(=O)NO)cc1)OCCC(c1ccccc1)c1ccccc1 [Example 10]
Second: O=C(NCc1ccc(C(=O)NO)cc1)OCC(c1ccccc1)c1ccccc1 [Example 2, 4-[2,2-(Diphenyl)ethoxycarbamoylmethyl]benzohydroxamic acid]
The IC50 of the first is 1.6-fold lower: 101 nM for the first, 163 nM for the second. The first is the more potent here.

First: CC(C)N1Cc2ccccc2CC1COC(=O)NCc1ccc(C(=O)NO)cc1 (stereo not shown) [Example 17, 4-[N-isopropyl-1,2,3,4-tetrahydroisoquinol-3-yl)methyloxycarbamoylmethyl]benzohydroxamic acid hydrochloride]
Second: O=C(Nc1ccc(C(=O)NO)cc1)OCCCc1ccccc1 [Example 6]
The IC50 of the first is 2-fold lower: 21 nM for the first, 43 nM for the second. The first is the more potent here.

First: O=C(Nc1ccc(C(=O)NO)cc1)OCc1ccc2ccccc2c1 [Example 7]
Second: O=C(CCCCc1ccccc1)Nc1ccc(C(=O)NO)cc1 [Example 1, 4-(5-Phenylpentanamido)benzohydroxamic acid]
The IC50 of the first is 25-fold lower: 12 nM for the first, 305 nM for the second.
